Experimental data reported in patent publication US9011853B2, “B7-H4 fusion proteins and methods of use thereof” (Amplimmune, Inc., priority 2009, dated 2015).
Where “and” joins values, the source holds several entries; their conditions need not be identical. Equal values may be shown once.

Assays:
[1] = system: DBA/1 mice; assay: Therapeutic CIA study AA#79 (female mice), disease score; format: in vivo, mouse
Procedure: DBA/1 mice (10 per group) aged 7-9 weeks were used for the CIA model. Mice from several vendors (Jackson Laboratories, Harlan Laboratories, and Taconic Farms) were tested and it was determined that Taconic mice are most appropriate for the CIA studies. Taconic mice develop more consistent and severe disease symptoms and show continued disease progression, while mice from the other vendors often show stable, less severe disease, even in the absence of treatment. female (F) mice in AA#79 and male (M) mice in AA#80, were tested to determine which gender to use in future experiments.
On the day before the study is initiated, the hair on the right flank of each mouse was removed using an electric clipper. A metal identification tag was placed on the right ear of each mouse. On Day 0, mice were immunized with 100 μL of chicken collagen type II/Complete Freund's Adjuvant (CII/CFA) emulsion in the right flank. On Day 20, the hair on the left flank of each mouse was removed using an electric clipper, and on Day 21, mice were immunized with 100 μL of chicken collagen type II/Incomplete Freund's Adjuvant (CII/IFA) emulsion in the left flank. Pre-filled syringes of CII/CFA and CII/IFA emulsion purchased from Hooke Laboratories were used to ensure consistent dosing with and potency of the immunogen.
Early arthritis symptoms, such as erythema and mild swelling, usually appear on Day 21, and on Day 28, more severe symptoms such as swelling in many digits and inflammation extending to the tarsal joint are typically present. Each limb is evaluated for severity of arthritis symptoms three times a week using a widely accepted arthritis severity score system, shown in Table 2. The scores from each of the 4 limbs are summed to yield the disease score of each mouse. […]
Treatment was initiated when the average disease score for the study animals was greater than four. This corresponded to Day 29 in AA#79 and Day 24 in […]. By waiting until animals are symptomatic, it was ensured that the model is performed in a therapeutic rather than prophylactic mode.
B7-H4-Ig, RPA110010, and murine B7-H4-Ig proteins were administered by intraperitoneal (IP) injection 3 times a week for a total of 8 doses. RPA110010 is an extracellular domain variant of B7-H4-Ig, SEQ ID NO:126. Control murine and human IgG proteins were given once a week for a total of 3 doses. […] All proteins were diluted to the desired concentration (500 μg in 500 μL, or 1 mg/mL) with sterile PBS immediately before injection. Vehicle control mice receive Amplimmune formulation buffer diluted 1:10 in PBS, with an injection volume of 500 μL.

[2] = system: serum levels of 58 analytes; assay: Serum biomarker analysis, quantitative immunoassay multi-analyte profiling (Rules-Based Medicine RodentMAP v2.9), AA#80; format: in vivo, mouse; details: serum
Procedure: In AA#80, serum samples were collected on Day 27, Day 34, Day 41 and Day 55 via the submandibular vein. Approximately 200 μL of blood per mouse was collected in Microtainer® serum separator tubes. Serum was removed following centrifugation and stored at <−65° C. until analysis.
Selected serum samples were sent to Rules-Based Medicine (Austin, Tex.) for quantitative immunoassay multi-analyte profiling of serum samples, with the goal of identifying biomarkers that could be used to monitor disease progression and response to B7-H4-Ig treatment. Day 27, Day 34, and Day 41 sera from the three representative mice in the B7-H4-Ig group (tag #3332, 3334, and 3338) and three representative mice in the Synagis® group (tag #3324, 3329, and 3330) were analyzed for levels of 58 analytes using the RodentMAP v2.9 Testing Service.
Data from the Rules-Based Medicine analysis was analyzed using Microsoft Excel and GraphPad Prism software. T-tests were performed to compare the levels of each analyte in the B7-H4-Ig versus Synagis® treated samples. No correction was made for multiple comparisons. Additionally, correlation coefficients were calculated for each analyte versus disease score.

Human B7-H4-Ig: human B7-H4 extracellular domain fused to hinge, CH2 and CH3 regions of human immunoglobulin Cγ1 chain; representative SEQ ID NOs:114-137
CIA disease score ([1]; AA#79, Study Day 12, individual mouse (Tag#)): 1 (2×) and 0 (4×) | CIA disease score ([1]; AA#79, Study Day 18, individual mouse (Tag#)): 2 (2×) and 1 (3×) and 0 | CIA disease score ([1]; AA#79, Study Day 22, individual mouse (Tag#)): 2 (5×) and 1 | CIA disease score ([1]; AA#79, Study Day 25, individual mouse (Tag#)): 2 (3×) and 3 (2×) and 4 | CIA disease score ([1]; AA#79, Study Day 27, individual mouse (Tag#)): 3 (2×) and 5 and 4 (3×) | CIA disease score ([1]; AA#79, Study Day 29, individual mouse (Tag#)): 6 and 5 (2×) and 4 (2×) and 7 | CIA disease score ([1]; AA#79, Study Day 32, individual mouse (Tag#)): 5 (2×) and 4 (2×) and 2 | CIA disease score ([1]; AA#79, Study Day 34, individual mouse (Tag#)): 4 (2×) and 2 and 5 (2×) | CIA disease score ([1]; AA#79, Study Day 36, individual mouse (Tag#)): 4 and 5 and 1 and 6 and 3 and 12 | CIA disease score ([1]; AA#79, Study Day 39, individual mouse (Tag#)): 5 and 12 and 6 and 9 and 3 and 11 | CIA disease score ([1]; AA#79, Study Day 41, individual mouse (Tag#)): 5 (2×) and 12 and 7 and 10 (2×) | CIA disease score ([1]; AA#79, Study Day 43, individual mouse (Tag#)): 3 (2×) and 10 (2×) and 6 and 9 | CIA disease score ([1]; AA#79, Study Day 46, individual mouse (Tag#)): 4 and 9 and 10 (2×) and 11 and 3 | CIA disease score ([1]; AA#79, Study Day 48, individual mouse (Tag#)): 5 and 10 (3×) and 6 and 11 | CIA disease score ([1]; AA#79, Study Day 50, individual mouse (Tag#)): 6 (2×) and 9 (2×) and 10 and 12 | CIA disease score ([1]; AA#79, Study Day 54, individual mouse (Tag#)): 3 and 10 (2×) and 13 (2×) and 5 | CIA disease score ([1]; AA#79, Study Day 57, individual mouse (Tag#)): 5 (2×) and 11 and 10 (2×) and 12 | SAP (Serum Amyloid P): Human LgG1 control vs. human B7-H4 Ig, ALL ([2]; p of difference between groups, ALL): 0.26 | SAP (Serum Amyloid P): Human LgG1 control vs. human B7-H4 Ig, D 27 ([2]; p of difference between groups, D 27): 0.32 | SAP (Serum Amyloid P): Human LgG1 control vs. human B7-H4 Ig, D 34 ([2]; p of difference between groups, D 34): 0.50 | SAP (Serum Amyloid P): Human LgG1 control vs. human B7-H4 Ig, D 41 ([2]; p of difference between groups, D 41): 0.13 | M-CSF (Macrophage-Colony Stimulating Factor) ([2]; Day 27, LDD 0.01795): 6.88 ng/mL and 6.51 ng/mL and 6.21 ng/mL | MIP-1gamma (Macrophage Inflammatory Protein-1gamma) ([2]; Day 27, LDD 0.0736): 43.2 ng/mL and 38.6 ng/mL and 32.1 ng/mL | TNF-alpha (Tumor Necrosis Factor-alpha) ([2]; Day 27, LDD 0.137): <low> | TEMP-1 (Tissue Inhibitor of Metalicproteinase Type-1) ([2]; Day 27, LDD 0.18): 1.38 ng/mL and 1.31 ng/mL and 1.14 ng/mL | IL-5 (Interleukin-5) ([2]; Day 27, LDD 0.194): 0.474 ng/mL and 0.333 ng/mL | MIP-1alpha (Macrophage Inflammatory Protein-1alpha) ([2]; Day 27, LDD 0.2255): 2.83 ng/mL and 3.13 ng/mL and 3.03 ng/mL | MIP-3beta (Macrophage Inflammatory Protein-3beta) ([2]; Day 27, LDD 0.465): 2.6 ng/mL and 2.79 ng/mL and 2.52 ng/mL | Tissue Factor ([2]; Day 27, LDD 0.5175): 8.32 ng/mL and 11.7 ng/mL and 10 ng/mL | MPO (Myeloperoxidase) ([2]; Day 27, LDD 0.95): 245 ng/mL and 227 ng/mL and 191 ng/mL | SGOT (Serum Glutamic-Oxaloacetic Transaminase) ([2]; Day 27, LDD 1.86): 74.3 µg/mL and 84.6 µg/mL and 94.3 µg/mL | TPO (Thromboproletin) ([2]; Day 27, LDD 2.66): 38 ng/mL and 39.8 ng/mL and 34.2 ng/mL | SAP (Setrum Amtyloid P) ([2]; Day 27, LDD 5.4): 41 µg/mL and 39.5 µg/mL and 30.7 µg/mL | MIP-2 (Macrophage Inflammatory Protein-2) ([2]; Day 27, LDD 7.174): 20.9 pg/mL and 16.3 pg/mL and 21.6 pg/mL | MMP-9 (Matrix Metalloproteinase-9) ([2]; Day 27, LDD 10): 266 ng/mL and 140 ng/mL | MCP-1 (Monocyte Chemoattractant Protein-1) ([2]; Day 27, LDD 16.924): 72.6 pg/mL and 55.4 pg/mL and 66.9 pg/mL | VCAM-1 (Vescular Cell Adhesion Molecule-1) ([2]; Day 27, LDD 19): 2250 ng/mL and 2120 ng/mL and 2130 ng/mL | MDC (Macrophage-Derived Chemokine) ([2]; Day 27, LDD 21.85): 1250 pg/mL and 1110 pg/mL and 1040 pg/mL | Myoglobin ([2]; Day 27, LDD 24): 17.5 ng/mL and 12.1 ng/mL and 9.69 ng/mL | MCP-3 (Monocyte Chemoattractant Protein-3) ([2]; Day 27, LDD 31.36): 160 pg/mL and 120 pg/mL and 129 pg/mL | VEGF (Vescular Endotheial Cell Growth Factor) ([2]; Day 27, LDD 38.2): 150 pg/mL and 128 pg/mL and 160 pg/mL | IP-10 (Inducible Protein-10) ([2]; Day 27, LDD 40.28): 57.3 pg/mL and 55.5 pg/mL and 38.6 pg/mL | LIF (Leukemia Infabitory Factor) ([2]; Day 27, LDD 43.6): 1540 pg/mL and 1500 pg/mL
